Assay results reported in patent US10494332B2, “Protein tyrosine phosphatases or SHP2 inhibitors and uses thereof” (Indiana University Research and Technology Corporation, priority 2015, dated 2019).
“And” between values parts separate entries of the source, which are not always exact repeats. Identical values can stand only once.

Assays:
CD45 = molecular target: T1, CD45 (Homo sapiens, UniProt P08575); test: PTP inhibition assay (pNPP); type: biochemical; conditions: pNPP at Km, pH 7.0, 25° C.
T1 sequence (P08575 26-1306): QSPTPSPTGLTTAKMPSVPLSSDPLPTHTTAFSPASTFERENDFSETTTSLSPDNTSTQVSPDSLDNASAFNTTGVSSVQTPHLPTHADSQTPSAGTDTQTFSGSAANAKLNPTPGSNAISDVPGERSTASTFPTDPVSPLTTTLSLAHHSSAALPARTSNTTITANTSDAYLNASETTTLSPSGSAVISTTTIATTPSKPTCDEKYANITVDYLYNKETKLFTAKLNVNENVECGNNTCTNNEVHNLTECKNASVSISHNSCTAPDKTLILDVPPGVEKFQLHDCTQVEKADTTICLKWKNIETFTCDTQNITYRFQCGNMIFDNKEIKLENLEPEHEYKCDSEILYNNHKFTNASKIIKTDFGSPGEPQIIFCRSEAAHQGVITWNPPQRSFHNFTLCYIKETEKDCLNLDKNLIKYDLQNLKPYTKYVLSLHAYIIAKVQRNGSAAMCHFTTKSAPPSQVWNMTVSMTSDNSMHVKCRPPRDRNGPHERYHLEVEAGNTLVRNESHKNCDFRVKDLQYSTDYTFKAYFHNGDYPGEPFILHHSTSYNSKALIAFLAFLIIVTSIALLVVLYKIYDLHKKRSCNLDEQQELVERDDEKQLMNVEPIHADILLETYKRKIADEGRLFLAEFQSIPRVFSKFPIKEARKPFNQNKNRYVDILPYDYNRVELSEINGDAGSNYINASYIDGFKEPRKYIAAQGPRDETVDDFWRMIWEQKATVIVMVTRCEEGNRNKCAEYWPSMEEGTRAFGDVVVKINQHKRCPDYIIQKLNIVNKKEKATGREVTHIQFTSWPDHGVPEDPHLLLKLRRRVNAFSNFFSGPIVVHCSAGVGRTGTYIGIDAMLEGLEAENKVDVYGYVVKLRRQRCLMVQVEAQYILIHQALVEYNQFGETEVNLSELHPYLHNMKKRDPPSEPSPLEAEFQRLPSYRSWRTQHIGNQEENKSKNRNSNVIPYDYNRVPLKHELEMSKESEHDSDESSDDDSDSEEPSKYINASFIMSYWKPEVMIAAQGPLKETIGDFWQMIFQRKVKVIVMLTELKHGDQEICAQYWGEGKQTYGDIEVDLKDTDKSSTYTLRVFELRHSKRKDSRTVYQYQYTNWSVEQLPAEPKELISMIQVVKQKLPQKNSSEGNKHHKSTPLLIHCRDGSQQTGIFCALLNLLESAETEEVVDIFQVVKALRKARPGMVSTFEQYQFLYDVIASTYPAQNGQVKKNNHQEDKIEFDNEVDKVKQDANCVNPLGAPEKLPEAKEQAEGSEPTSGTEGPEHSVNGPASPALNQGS

PP5 = molecular target: T2, PP5 (Homo sapiens, UniProt P53041); test: Phosphatase inhibition assay (pNPP)
T2 sequence (P53041 1-499): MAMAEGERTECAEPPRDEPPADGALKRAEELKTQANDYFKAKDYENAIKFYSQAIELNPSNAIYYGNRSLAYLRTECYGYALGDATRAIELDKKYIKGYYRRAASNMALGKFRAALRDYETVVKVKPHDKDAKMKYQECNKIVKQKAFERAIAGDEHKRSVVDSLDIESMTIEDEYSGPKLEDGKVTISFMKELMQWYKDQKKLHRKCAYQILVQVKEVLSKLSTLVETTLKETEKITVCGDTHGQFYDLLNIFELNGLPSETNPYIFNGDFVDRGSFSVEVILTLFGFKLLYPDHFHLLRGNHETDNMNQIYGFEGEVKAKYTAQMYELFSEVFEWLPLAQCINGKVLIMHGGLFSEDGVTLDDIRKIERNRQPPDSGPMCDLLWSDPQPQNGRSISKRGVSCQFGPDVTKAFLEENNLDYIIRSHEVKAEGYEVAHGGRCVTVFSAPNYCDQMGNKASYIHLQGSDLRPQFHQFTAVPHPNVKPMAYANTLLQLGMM

CDC14A = molecular target: T3, CDC14A (Homo sapiens, UniProt Q9UNH5); test: PTP inhibition assay (pNPP); type: biochemical
T3 sequence (Q9UNH5 1-594): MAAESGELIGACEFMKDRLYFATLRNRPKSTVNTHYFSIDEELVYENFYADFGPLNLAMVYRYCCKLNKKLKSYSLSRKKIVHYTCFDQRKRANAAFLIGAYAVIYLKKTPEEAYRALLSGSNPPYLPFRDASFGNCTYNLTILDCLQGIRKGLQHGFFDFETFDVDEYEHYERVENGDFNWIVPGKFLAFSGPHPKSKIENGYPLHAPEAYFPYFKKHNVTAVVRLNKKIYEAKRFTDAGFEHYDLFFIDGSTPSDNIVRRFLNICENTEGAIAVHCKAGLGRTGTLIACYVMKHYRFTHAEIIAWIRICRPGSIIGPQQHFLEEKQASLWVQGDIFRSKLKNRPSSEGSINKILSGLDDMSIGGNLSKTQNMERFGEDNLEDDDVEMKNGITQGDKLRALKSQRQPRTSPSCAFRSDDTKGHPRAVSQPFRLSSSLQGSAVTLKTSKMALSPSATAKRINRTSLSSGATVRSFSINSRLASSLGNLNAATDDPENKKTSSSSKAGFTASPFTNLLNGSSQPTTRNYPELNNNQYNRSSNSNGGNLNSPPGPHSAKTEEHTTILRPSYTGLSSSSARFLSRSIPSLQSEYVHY

Row | Compound | IC50 (CD45) | IC50 (PP5) [µM] | IC50 (CDC14A) [µM]
1 | O=C(C(c1ccccc1)S(=O)(=O)O)N1CCCC2CCCCC21 (stereo not drawn) [Compound L319N53] | > 200 µM | > 200 | > 200
2 | O=C(Nc1ccc(N2CCOCC2)cc1)C(c1ccccc1)S(=O)(=O)O (stereo not drawn) [Compound L319M68] | > 200 µM | > 200 | > 200
3 | Cc1c(Br)cc(NC(=O)CS(=O)(=O)O)cc1Br | > 100 µM | > 100 | > 100
4 | O=C(CS(=O)(=O)O)Nc1ccc2nc(C(F)(F)F)[nH]c2c1 | > 100 µM | > 100 | > 100
5 | O=C(C(c1ccccc1)S(=O)(=O)O)N1CCC(Cc2ccccc2)CC1 (stereo not drawn) [Compound L319N46] | > 200 µM | > 200 | > 200
6 | O=C(C(c1ccccc1)S(=O)(=O)O)N1CCC(c2ccc(Cl)c(Cl)c2)CC1 (stereo not drawn) [Compound L319N47] | 140 µM | > 200 | > 200
7 | O=C(Nc1ccc2nc(C(F)(F)F)[nH]c2c1)C(c1ccccc1)S(=O)(=O)O (stereo not drawn) [Compound L319M54] | > 200 µM | > 200 | > 200
8 | O=C(CS(=O)(=O)O)Nc1nc2ccc([N+](=O)[O-])cc2s1 [Compound L335N15-07] | > 100 µM | > 100 | > 100
9 | O=C(Nc1nc2ccccc2s1)C(c1ccccc1)S(=O)(=O)O (stereo not drawn) [Compound L319N15] | > 200 µM and 180 µM | > 200 | > 200
10 | O=C(CS(=O)(=O)O)Nc1nc2ccccc2s1 [Compound L335N15] | > 100 µM | > 100 | > 100
11 | O=C(Nc1cnc2ccccc2c1)C(c1ccccc1)S(=O)(=O)O (stereo not drawn) [Compound L319M88] | > 200 µM | > 200 | > 200
12 | O=C(Nc1cccc(OCc2ccccc2)c1)C(c1ccccc1)S(=O)(=O)O (stereo not drawn) [Compound L319M52] | > 200 µM | > 200 | > 200
13 | O=C(CS(=O)(=O)O)Nc1cnc2ccccc2c1 | > 100 µM | > 100 | > 100
